Measurements: patent US20110136801A1, “Novel Compounds” (Dainippon Sumitomo Pharma Co. Ltd., priority 2009, published 2011)

Columns and labels:
human TLR7 = target: T1, human TLR7 (Homo sapiens, UniProt Q9NYK1); assay: Human TLR7 Assay (SEAP reporter in HEK293 cells); type: cell-based; conditions: HEK293 cell line expressing human TLR7 and pNiFty2-SEAP reporter, overnight incubation at 37° C., 0.1% DMSO; read-out: hTLR7 EC50;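 also: Read-out is secreted alkaline phosphatase made under an NFkB/ELAM-1 composite promoter, reporting TLR7-triggered NFkB activation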
T1 construct: expressed in transfected cells; host or cells: HEK293 cell line stably expressing the pNiFty2-SEAP reporter plasmid; TLR7 in pUNO vector, blasticidin selection
T1 sequence (Q9NYK1 27-1049): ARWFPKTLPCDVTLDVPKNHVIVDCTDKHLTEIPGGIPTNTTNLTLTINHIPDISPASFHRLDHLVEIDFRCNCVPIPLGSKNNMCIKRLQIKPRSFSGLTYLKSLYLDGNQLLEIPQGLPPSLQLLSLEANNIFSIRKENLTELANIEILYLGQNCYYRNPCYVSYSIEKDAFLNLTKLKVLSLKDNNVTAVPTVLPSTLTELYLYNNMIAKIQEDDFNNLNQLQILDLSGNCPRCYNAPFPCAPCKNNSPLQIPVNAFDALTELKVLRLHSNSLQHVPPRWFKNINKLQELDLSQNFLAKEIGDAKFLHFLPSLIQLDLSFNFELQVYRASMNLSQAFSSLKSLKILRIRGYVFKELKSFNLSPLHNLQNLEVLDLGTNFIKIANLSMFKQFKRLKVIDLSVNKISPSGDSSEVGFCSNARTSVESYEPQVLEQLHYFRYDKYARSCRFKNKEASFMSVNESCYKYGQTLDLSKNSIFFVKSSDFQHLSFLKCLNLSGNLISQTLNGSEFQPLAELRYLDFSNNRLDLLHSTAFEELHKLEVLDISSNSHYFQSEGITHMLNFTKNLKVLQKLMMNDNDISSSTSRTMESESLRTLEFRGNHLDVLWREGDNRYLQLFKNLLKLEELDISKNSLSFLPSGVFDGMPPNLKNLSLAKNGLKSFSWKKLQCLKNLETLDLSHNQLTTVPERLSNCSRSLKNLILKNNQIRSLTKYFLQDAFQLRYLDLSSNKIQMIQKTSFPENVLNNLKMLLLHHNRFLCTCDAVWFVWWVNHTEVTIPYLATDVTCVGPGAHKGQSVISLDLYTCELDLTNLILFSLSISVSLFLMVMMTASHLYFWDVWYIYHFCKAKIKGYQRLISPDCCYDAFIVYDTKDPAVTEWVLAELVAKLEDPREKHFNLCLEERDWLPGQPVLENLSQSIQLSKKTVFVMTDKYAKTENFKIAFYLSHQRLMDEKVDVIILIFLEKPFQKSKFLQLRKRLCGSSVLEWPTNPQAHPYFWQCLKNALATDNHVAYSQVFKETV

Male Brown Norway rats = assay: Antigen-induced pulmonary inflammation in a rat asthma model (eosinophils and Th2 cytokines in BALF); type: in vivo; conditions: BALF 48 hours after challenge
Procedure: Rats were sensitized and challenged to produce allergic airway inflammation in a similar manner to that described by Underwood et al (British Journal of Pharmacology 2002; 137: 263-275, 2002). Male Brown Norway rats were sensitized subcutaneously with ovalbumin (OVA) and aluminum hydroxide on day 0, and challenged with aerosolized OVA solution on day 14. The test compound was administered twice intratracheally 24 hours before and 24 hours after the OVA-challenge and bronchoalveolar lavage fluid (BALF) was collected 48 hours after the OVA-challenge. Then eosinophils and Th2 cytokines (IL-5 and IL-13) in the BALF were measured to evaluate efficacy of the test compounds of this invention.

[1] = 0.01 mg/kg intratracheally 24 hours before and 24 hours after OVA-challenge
[2] = 0.1 mg/kg intratracheally 24 hours before and 24 hours after OVA-challenge
[3] = 1.0 mg/kg intratracheally 24 hours before and 24 hours after OVA-challenge

EC50 (human TLR7)	Compound	Eosinophiles in BALF, inhibition (%) to OVA-Challenge control (Male Brown Norway rats; [1])	IL-5 in BALF, inhibition (%) to OVA-Challenge control (Male Brown Norway rats; [1])	IL-13 in BALF, inhibition (%) to OVA-Challenge control (Male Brown Norway rats; [1])	Eosinophiles in BALF, inhibition (%) to OVA-Challenge control (Male Brown Norway rats; [2])	IL-5 in BALF, inhibition (%) to OVA-Challenge control (Male Brown Norway rats; [2])	IL-13 in BALF, inhibition (%) to OVA-Challenge control (Male Brown Norway rats; [2])	Eosinophiles in BALF, inhibition (%) to OVA-Challenge control (Male Brown Norway rats; [3])	IL-5 in BALF, inhibition (%) to OVA-Challenge control (Male Brown Norway rats; [3])	IL-13 in BALF, inhibition (%) to OVA-Challenge control (Male Brown Norway rats; [3])
31.7 nM	CCN(CC)CC(=O)N(CCCn1c(CCOC)nc2c(N)nc3ccccc3c21)Cc1cccc(OCC(=O)OC)c1 [Example 20, Methyl (3-{[[3-(4-amino-2-(2-methoxyethyl)-1H-imidazo[4,5-c]quinolin-1-yl)propyl](N,N-diethylglycyl)amino]methyl}phenoxy)acetate]	14%	No effect	No effect	56%	No effect	22%	–	–	–
27.9 nM	CCN(CC)CC(=O)N(CCCn1c(CCOC)nc2c(N)nc3ccccc3c21)Cc1cccc(OCC(=O)OC(C)C)c1F [Example 94, Isopropyl 2-{3-[(N-{3-[4-amino-2-(2-methoxyethyl)-1H-imidazo[4,5-c]quinolin-1-yl]propyl}-2-{diethylamino}acetamido)methy]-2-fluorophenoxy}acetate]	–	–	–	68%	34%	50%	91%	90%	82%
33.1 nM	CCN(CC)CC(=O)N(CCCn1c(CCOC)nc2c(N)nc3ccccc3c21)Cc1cccc(OC(C)(C)C(=O)OC)c1 [Example 56, Methyl 2-{3-[(N-{3-[4-amino-2-(2-methoxyethyl)-1H-imidazo[4,5-c]quinolin-1-yl]propyl}-2-{diethylamino}acetamido)methyl]phenoxy}-2-methylpropanoate]	–	–	–	78%	86%	89%	94%	99%	98%
66.1 nM	CCN(CC)CC(=O)N(CCCn1c(CCOC)nc2c(N)nc3ccccc3c21)Cc1cccc(OCC(=O)OC(C)C)c1 [Example 27, Isopropyl 2-{3-[(N-{3-[4-amino-2-(2-methoxyethyl)-1H-imidazo[4,5-c]quinolin-1-yl]propyl}-2-(diethylamino)acetamido)methyl]phenoxy}acetate]	–	–	–	64%	41%	72%	89%	90%	88%
56.6 nM	CCN(CC)CC(=O)N(CCCn1c(CCOC)nc2c(N)nc3ccccc3c21)Cc1cccc(OCC(=O)OC2CCCC2)c1 [Example 80, Cyclopentyl 2-{3-[(N-{3-[4-amino-2-(2-methoxyethyl)-1H-imidazo[4,5-c]quinolin-1-yl]propyl}-2-{diethylamino}acetamido)methyl]phenoxy}acetate]	–	–	–	15%	No effect	No effect	89%	91%	83%
